# Test results reported in ChEMBL document CHEMBL1201862, “PubChem BioAssay data set” (2004).
#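 Where inhibition never reached the appropriate level, the endpoint shown equals the highest concentration tested. Otherwise, values were interpolated linearly from a five-concentration, 48-hour dose response in 96-well plates. Abbreviation: GI50, concentration required for 50% inhibition of growth.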 Activity calls are given as the source filed them. Rule as the data show it: active = GI50 up to about 1.1 µM and inactive = higher.
# Experiments:
# Assay in all cases: inhibition of tumour cell growth, NCI panel, 48 h
# RPMI-8226 = test system: RPMI-8226
# SF-268 = test system: SF-268
# ACHN = test system: ACHN
# UO-31 = test system: UO-31
# U-251 = test system: U-251
# OVCAR-3 = test system: OVCAR-3
# NCI-H23 = test system: NCI-H23
# SNB-75 = test system: SNB-75
# SK-OV-3 = test system: SK-OV-3
# MCF7 = test system: MCF7
# HL-60 = test system: HL-60
# TK-10 = test system: TK-10
# SK-MEL-5 = test system: SK-MEL-5
# NCI/ADR-RES = test system: NCI/ADR-RES
# MDA-MB-231 = test system: MDA-MB-231
# SN12C = test system: SN12C
# A549 = test system: A549
# BT-549 = test system: BT-549
# 786-0 = test system: 786-0
Structure (SMILES),GI50 (RPMI-8226),GI50 (SF-268),GI50 (ACHN),GI50 (UO-31),GI50 (U-251),GI50 (OVCAR-3),GI50 (NCI-H23),GI50 (SNB-75),GI50 (SK-OV-3),GI50 (MCF7),GI50 (HL-60),GI50 (TK-10),GI50 (SK-MEL-5),GI50 (NCI/ADR-RES),GI50 (MDA-MB-231),GI50 (SN12C),GI50 (A549),GI50 (BT-549),GI50 (786-0)
O=C1C=C(Nc2nc(O)cc(C(=O)O)n2)c2ccccc2C1=O,> 100 µM (inactive),> 100 µM (inactive),> 100 µM (inactive),> 100 µM (inactive),> 100 µM (inactive),> 100 µM (inactive),> 100 µM (inactive),> 100 µM (inactive),> 100 µM (inactive),> 100 µM (inactive),> 100 µM (inactive),> 100 µM (inactive),> 100 µM (inactive),> 100 µM (inactive),> 100 µM (inactive),> 100 µM (inactive),> 100 µM (inactive),> 100 µM (inactive),> 100 µM (inactive)
O=C(/C=C/c1ccccc1)c1cc(Br)ccc1O,6.84 µM (inactive),16.9 µM (inactive),15.1 µM (inactive),10.9 µM (inactive),15.1 µM (inactive),18 µM (inactive),16 µM (inactive),15.4 µM (inactive),20 µM (inactive),10.8 µM (inactive),4.06 µM (inactive),17.6 µM (inactive),15.3 µM (inactive),17.5 µM (inactive),18 µM (inactive),15.1 µM (inactive),24 µM (inactive),16 µM (inactive),13.9 µM (inactive)
CC(=O)O[C@@H]1[C@H]2[C@@H](OC(=O)c3ccccc3)[C@@H](C)C[C@]2(O)[C@H](OC(C)=O)[C@@]2(C)[C@@H]3CC(C)(C)C(=O)[C@]3(OC(C)=O)C[C@@]12C,–,> 25 µM (inactive),> 25 µM (inactive),13.9 µM (inactive),> 25 µM (inactive),> 25 µM (inactive),> 25 µM (inactive),1.95 µM (inactive),> 25 µM (inactive),> 25 µM (inactive),1.35 µM (inactive),> 25 µM (inactive),18.7 µM (inactive),> 25 µM (inactive),> 25 µM (inactive),> 25 µM (inactive),–,> 25 µM (inactive),17.1 µM (inactive)
CC(C)=CCC[C@@H](C)c1c2nc3ccccc3sc-2c(C)c(=O)c1O,4.11 µM (inactive),3.99 µM (inactive),2.65 µM (inactive),3.55 µM (inactive),6.38 µM (inactive),9.35 µM (inactive),5.93 µM (inactive),5.53 µM (inactive),7.74 µM (inactive),8.3 µM (inactive),1.51 µM (inactive),12.8 µM (inactive),3.1 µM (inactive),2.05 µM (inactive),15.1 µM (inactive),5.74 µM (inactive),5.62 µM (inactive),31 µM (inactive),4.9 µM (inactive)
O=c1[nH]nc(Cc2ccccc2)n1Nc1ccccc1,> 100 µM (inactive),52 µM (inactive),> 100 µM (inactive),> 100 µM (inactive),> 100 µM (inactive),> 100 µM (inactive),> 100 µM (inactive),17.2 µM (inactive),–,> 100 µM (inactive),> 100 µM (inactive),> 100 µM (inactive),> 100 µM (inactive),> 100 µM (inactive),> 100 µM (inactive),> 100 µM (inactive),> 100 µM (inactive),> 100 µM (inactive),> 100 µM (inactive)
O=C(N/N=C/C=C/c1ccccc1)c1ccccc1Nc1ccccc1C(=O)N/N=C/C=C/c1ccccc1,> 100 µM (inactive),34.4 µM (inactive),> 100 µM (inactive),> 100 µM (inactive),20.8 µM (inactive),> 100 µM (inactive),> 100 µM (inactive),21.4 µM (inactive),> 100 µM (inactive),> 100 µM (inactive),> 100 µM (inactive),> 100 µM (inactive),> 100 µM (inactive),> 100 µM (inactive),49.5 µM (inactive),> 100 µM (inactive),> 100 µM (inactive),> 100 µM (inactive),> 100 µM (inactive)
C[C@H](CCC1=NCCN1)[C@H]1CC[C@H]2[C@@H]3[C@H](O)C[C@@H]4C[C@H](O)CC[C@]4(C)[C@H]3CC[C@]12C,14.7 µM (inactive),13.2 µM (inactive),16.4 µM (inactive),14.6 µM (inactive),12.8 µM (inactive),13.7 µM (inactive),14.3 µM (inactive),10.6 µM (inactive),19.1 µM (inactive),15.2 µM (inactive),> 10 µM (inactive),13.8 µM (inactive),11.8 µM (inactive),28.8 µM (inactive),16.7 µM (inactive),21.1 µM (inactive),–,12.3 µM (inactive),14.6 µM (inactive)
Cc1cn([C@@H]2C[C@H]2CO)c(=O)[nH]c1=O,> 100 µM (inactive),> 100 µM (inactive),> 100 µM (inactive),80.4 µM (inactive),> 100 µM (inactive),–,> 100 µM (inactive),> 100 µM (inactive),–,> 100 µM (inactive),> 100 µM (inactive),> 100 µM (inactive),> 100 µM (inactive),> 100 µM (inactive),> 100 µM (inactive),> 100 µM (inactive),> 100 µM (inactive),> 100 µM (inactive),> 100 µM (inactive)
CC(=O)OCC1OC(c2c(OC(C)=O)cc(C)c3c(=O)cc(/C(C(C)=O)=C(\C)O)oc23)C(OC(C)=O)C(OC(C)=O)C1OC(C)=O (stereo not given),> 100 µM (inactive),87.7 µM (inactive),> 100 µM (inactive),> 100 µM (inactive),> 100 µM (inactive),> 100 µM (inactive),> 100 µM (inactive),49.5 µM (inactive),> 100 µM (inactive),> 100 µM (inactive),> 100 µM (inactive),> 100 µM (inactive),> 100 µM (inactive),> 100 µM (inactive),> 100 µM (inactive),> 100 µM (inactive),> 100 µM (inactive),> 100 µM (inactive),> 100 µM (inactive)
COc1ccc(C(=O)N(C(=S)OCCOc2ccccc2)c2ccccc2)cc1,14.6 µM (inactive),44 µM (inactive),44.9 µM (inactive),0.0457 µM (active),46.1 µM (inactive),38 µM (inactive),32.4 µM (inactive),1.63 µM (inactive),52.7 µM (inactive),42 µM (inactive),20.2 µM (inactive),61 µM (inactive),–,37.2 µM (inactive),86.1 µM (inactive),43.8 µM (inactive),31.1 µM (inactive),49.9 µM (inactive),47.9 µM (inactive)
COC(=O)C1=C(C)NC(CF)=C(C(=O)OC)C1c1cccc2c(=O)c3ccccc3oc12 (stereo not given),69.3 µM (inactive),18.3 µM (inactive),15.1 µM (inactive),6.59 µM (inactive),–,4.85 µM (inactive),36.8 µM (inactive),8.41 µM (inactive),26.5 µM (inactive),4.94 µM (inactive),4.65 µM (inactive),35.8 µM (inactive),5.06 µM (inactive),2.79 µM (inactive),4.74 µM (inactive),4.63 µM (inactive),9.46 µM (inactive),15.8 µM (inactive),7.38 µM (inactive)
COC(=O)C1OC(O[C@H]2CC[C@]3(C)[C@H]4CC=C5[C@@H]6CC(C)(C)CC[C@]6(C(=O)OC)[C@H](O)C[C@@]5(C)[C@]4(C)CC[C@H]3C2(C)C)C(O)C(O)C1O (stereo not given in full),4.9 µM (inactive),13.2 µM (inactive),11.5 µM (inactive),14 µM (inactive),11.6 µM (inactive),10.4 µM (inactive),6.21 µM (inactive),14.8 µM (inactive),15 µM (inactive),11 µM (inactive),3.37 µM (inactive),–,13.4 µM (inactive),12.2 µM (inactive),9.33 µM (inactive),12.9 µM (inactive),4.08 µM (inactive),15.7 µM (inactive),8.49 µM (inactive)
COc1ccc(S(=O)(=O)NC(CCC(=O)NN)C(=O)NN)cc1 (stereo not given),> 100 µM (inactive),–,> 100 µM (inactive),> 100 µM (inactive),> 100 µM (inactive),> 100 µM (inactive),> 100 µM (inactive),> 100 µM (inactive),> 100 µM (inactive),> 100 µM (inactive),> 100 µM (inactive),> 100 µM (inactive),> 100 µM (inactive),> 100 µM (inactive),> 100 µM (inactive),> 100 µM (inactive),> 100 µM (inactive),> 100 µM (inactive),> 100 µM (inactive)
C[Si](C)(OCCS(=O)(=O)O)OC(=C1S(=O)(=O)OCCOS1(=O)=O)c1cccc2ccccc12,> 100 µM (inactive),64 µM (inactive),> 100 µM (inactive),> 100 µM (inactive),> 100 µM (inactive),36.5 µM (inactive),> 100 µM (inactive),> 100 µM (inactive),–,67.6 µM (inactive),11.6 µM (inactive),> 100 µM (inactive),> 100 µM (inactive),> 100 µM (inactive),> 100 µM (inactive),> 100 µM (inactive),> 100 µM (inactive),> 100 µM (inactive),> 100 µM (inactive)
